Conditions: colour difference vs product with no iron salts; approximately 2.1 mg iron per 100 g; flash pasteurized at 3.05° C. for 2 minutes; 47.3% banana puree
Method: Colour measurements were performed in 1×1 cm polystyrene cuvettes using an X-Rite ColorEye 7000A colorimeter. The colorimeter was set up with a D65 light source, 3.0 degree observer angle and with specular component included. The colour difference between the product with no iron salts and the iron fortified product was measured for each iron salt and expressed as ΔEab* using the CIELAB colour scale.

O=S(=O)([O-])[O-].[Fe+2] [Ferrous sulphate]
ΔEab*: 3.26
